The values that follow come from PubChem BioAssay (NCI).

Among the test systems are NCI/ADR-RES ovarian; MALME-3M melanoma; SNB-19 CNS; NCI-H23 lung; HOP-92 NSCLC; UACC-62 melanoma; HT29 colon; KM12 colon; NCI-H226 lung; U251 CNS.
What all share (experiment): NCI tumour cell line growth inhibition, 48 h

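A five-concentration, 48-hour dose response in 96-well plates underlies each endpoint, interpolated linearly between surrounding concentrations. Here, GI50 denotes the concentration required for 50% inhibition of growth. TGI denotes the concentration required for complete inhibition of growth.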 Where a SMILES comes first, the peptide text is derived from it. The star is where a group is joined. Fmoc = O=C(OCC1c2ccccc2-c2ccccc21)*; Boc = CC(C)(C)OC(=O)*

Take `COc1ccc(C(SCCO)(c2ccccc2)c2ccccc2)cc1`: the TGI was 34.2 µM in the assay with NCI/ADR-RES ovarian; 38.5 µM in the assay with MALME-3M melanoma; 29.1 µM in the assay with SNB-19 CNS; 34 µM in the assay with NCI-H23 lung; 25.4 µM in the assay with HOP-92 NSCLC; 28.1 µM in the assay with UACC-62 melanoma. The TGI in the assay with HT29 colon came out at 39.2 µM; in the assay with KM12 colon, 37 µM; in the assay with NCI-H226 lung, 30.2 µM; in the assay on U251 CNS, 25.9 µM.
For the compound `N#CCCC1(CCC#N)CCCCCCCCC(CCC#N)(CCC#N)C(=O)C1=O`, the TGI in the assay on NCI/ADR-RES ovarian, in the assay with MALME-3M melanoma, in the assay with SNB-19 CNS, with NCI-H23 lung, in the assay on HOP-92 NSCLC and in the assay with UACC-62 melanoma was > 100 µM in each case. Further, the TGI in the assay on HT29 colon, in the assay on KM12 colon, with NCI-H226 lung and in the assay with U251 CNS was > 100 µM throughout.
Consider `CC(=O)N(O)[C@@H]1CC[C@H](n2cnc3c(N)ncnc32)C1`, for which the TGI with NCI/ADR-RES ovarian, in the assay with MALME-3M melanoma, with SNB-19 CNS, in the assay on NCI-H23 lung, with HOP-92 NSCLC and in the assay with UACC-62 melanoma was > 100 µM in each case. Also, the TGI with KM12 colon, in the assay on NCI-H226 lung and in the assay on U251 CNS was > 100 µM each time.
As to `CCOC(=O)Cc1nc2sc(S(N)(=O)=O)nn2c1Br`, the TGI with NCI/ADR-RES ovarian is > 100 µM; with MALME-3M melanoma, 81.7 µM; in the assay on SNB-19 CNS, > 100 µM; with NCI-H23 lung, 81.5 µM; in the assay on HOP-92 NSCLC it was 41.1 µM; with UACC-62 melanoma, 36.1 µM. Also, the TGI was 45.1 µM with HT29 colon, > 100 µM in the assay with KM12 colon, 73 µM in the assay with NCI-H226 lung and 37.9 µM in the assay on U251 CNS.
As to `O=C/C=C/c1ccco1`, the TGI with NCI/ADR-RES ovarian, with MALME-3M melanoma, with SNB-19 CNS, in the assay on NCI-H23 lung, in the assay with HOP-92 NSCLC and in the assay with UACC-62 melanoma was > 100 µM throughout. Besides, the TGI in the assay with HT29 colon, in the assay on KM12 colon, with NCI-H226 lung and with U251 CNS was > 100 µM in each case.
`O=C(CCCCCCC(=O)Nc1cccnc1)NO`: the TGI with NCI/ADR-RES ovarian is 10.1 µM; in the assay with MALME-3M melanoma it was > 100 µM; in the assay on SNB-19 CNS it was > 100 µM; with NCI-H23 lung, > 100 µM; in the assay with HOP-92 NSCLC it was > 100 µM; in the assay with UACC-62 melanoma it was 18.5 µM. For the same compound, the TGI in the assay on HT29 colon is > 37.4 µM; in the assay on KM12 colon, > 44.6 µM; in the assay with NCI-H226 lung, > 100 µM; in the assay with U251 CNS, > 54.8 µM.
As for `COc1ccc(OC)c(CC2CCc3nc(N)nc(N)c3C2)c1` (stereo unspecified), the TGI in the assay on NCI/ADR-RES ovarian is > 32.4 µM; in the assay on MALME-3M melanoma, 24.2 µM; in the assay on SNB-19 CNS, > 81.8 µM; with NCI-H23 lung, > 49.8 µM; in the assay on HOP-92 NSCLC, 77.4 µM; with UACC-62 melanoma it was 25.8 µM. Besides, the TGI was > 100 µM in the assay with HT29 colon, > 100 µM in the assay on KM12 colon, > 49.4 µM with NCI-H226 lung and > 100 µM with U251 CNS.
For `CCOc1ccc(/C=N/[N+](C)(C)C)cc1OCC`, the TGI in the assay on NCI/ADR-RES ovarian, in the assay on MALME-3M melanoma, in the assay on SNB-19 CNS, in the assay with NCI-H23 lung, with HOP-92 NSCLC and with UACC-62 melanoma was > 10 µM each time. Further, the TGI with HT29 colon, in the assay on KM12 colon and in the assay on U251 CNS was > 10 µM in each case.
`O=C1/C(=C/c2ccc(Cl)cc2)N=C(c2ccccc2)N1CCc1cccs1`: the GI50 with NCI/ADR-RES ovarian was 23.7 µM; in the assay on MALME-3M melanoma, 35.1 µM; in the assay on SNB-19 CNS, 29.4 µM; in the assay on NCI-H23 lung, 20 µM; in the assay on HOP-92 NSCLC, 3.49 µM; in the assay with UACC-62 melanoma, 13.8 µM. The GI50 in the assay on HT29 colon is 20.3 µM; in the assay on KM12 colon, 22 µM; in the assay with NCI-H226 lung, 21.2 µM; in the assay on U251 CNS, 22.4 µM. Also, the TGI was > 100 µM in the assay on NCI/ADR-RES ovarian; > 100 µM with MALME-3M melanoma; > 100 µM in the assay with SNB-19 CNS; > 100 µM in the assay on NCI-H23 lung; 38.5 µM with HOP-92 NSCLC; 63.2 µM in the assay on UACC-62 melanoma. Moreover, the TGI with HT29 colon, in the assay with KM12 colon, in the assay on NCI-H226 lung and in the assay with U251 CNS was > 100 µM in each case.
For `CC(C)(C)OC(=O)NCCCCC(NC(=O)OCC1c2ccccc2-c2ccccc21)C(=O)N1CCCC1C(=O)NCC(N)=O` (stereo not drawn) (Fmoc-Lys(Boc)-Pro-Gly-NH2; configuration not given here), the TGI in the assay on NCI/ADR-RES ovarian was > 100 µM; in the assay on MALME-3M melanoma, 34.5 µM; in the assay with SNB-19 CNS, > 100 µM; with NCI-H23 lung it was > 100 µM; in the assay with HOP-92 NSCLC it was 48.2 µM; in the assay on UACC-62 melanoma it was > 100 µM. Moreover, the TGI in the assay with HT29 colon is > 100 µM; with KM12 colon it was 38.3 µM; in the assay with NCI-H226 lung it was > 100 µM; in the assay on U251 CNS, 33.1 µM.
As to `CCN1CCN(c2nc3ccc([N+](=O)[O-])cc3nc2C(=O)c2ccccc2)CC1`, the TGI came out at 29.2 µM in the assay on NCI/ADR-RES ovarian; 28.2 µM with MALME-3M melanoma; 71.2 µM with SNB-19 CNS; 34.4 µM in the assay on NCI-H23 lung; 32.7 µM with HOP-92 NSCLC; 31.2 µM in the assay with UACC-62 melanoma. The TGI was 31.8 µM in the assay on KM12 colon, 33.3 µM with NCI-H226 lung and 31.9 µM with U251 CNS.
For `O=C1/C(=C/c2cccc(Br)c2)CSC/C1=C\c1cccc(Br)c1`, the TGI was found to be 25.5 µM with NCI/ADR-RES ovarian; 4.43 µM with MALME-3M melanoma; 10.6 µM with SNB-19 CNS; 9.03 µM with NCI-H23 lung; 7.43 µM in the assay on HOP-92 NSCLC; 3.14 µM in the assay with UACC-62 melanoma. In addition, the TGI is 5.67 µM with HT29 colon, 4.43 µM in the assay on KM12 colon and 3.53 µM with U251 CNS.
Turning to `CC1C2CC(C(S(=O)(=O)N3CCOCC3)/C2=N\O)C1(C)C` (stereo unspecified), the TGI in the assay on NCI/ADR-RES ovarian, in the assay on MALME-3M melanoma, in the assay with SNB-19 CNS, in the assay with NCI-H23 lung, in the assay with HOP-92 NSCLC and in the assay with UACC-62 melanoma was > 100 µM in each case. In addition, the TGI in the assay with HT29 colon, in the assay on KM12 colon and with NCI-H226 lung was > 100 µM each time.
On to `CC(C)[Si](OC1=CCC[C@H]2NC(=O)[C@@H](Cc3ccccc3)[C@@]12C)(C(C)C)C(C)C`, for which the TGI in the assay on NCI/ADR-RES ovarian was determined as 21.7 µM; with MALME-3M melanoma it was 34.3 µM; with SNB-19 CNS it was 22.5 µM; with NCI-H23 lung, 18.9 µM; in the assay on HOP-92 NSCLC, 6.67 µM; in the assay on UACC-62 melanoma it was 22.4 µM. Moreover, the TGI is 12.1 µM in the assay on HT29 colon, 14.4 µM with KM12 colon and 11.6 µM in the assay with U251 CNS.
As to `CCOC(=O)NC(NC1=NCCS1)(C(=O)OCC)C(F)(F)F` (stereo unspecified), the TGI with NCI/ADR-RES ovarian, in the assay on MALME-3M melanoma, in the assay with SNB-19 CNS, in the assay on NCI-H23 lung, with HOP-92 NSCLC and with HT29 colon was > 100 µM throughout. In addition, the TGI with KM12 colon, in the assay with NCI-H226 lung and in the assay with U251 CNS was > 100 µM in each case.
On to `COC(=O)/C=C/c1ccc2c(c1)CC1(C2)Cc2cc3c(cc2C1=O)CCC3` (stereo unspecified), for which the TGI in the assay with NCI/ADR-RES ovarian, in the assay with MALME-3M melanoma, with SNB-19 CNS, in the assay on HOP-92 NSCLC, with UACC-62 melanoma and with KM12 colon was > 100 µM in each case. For the same compound, the TGI with NCI-H226 lung and in the assay on U251 CNS was > 100 µM throughout.
In the case of `O=C1CCCC/C1=C\c1ccc(Br)cc1`, the TGI worked out at 12.2 µM in the assay on NCI/ADR-RES ovarian; 21.5 µM with MALME-3M melanoma; 13.2 µM in the assay on SNB-19 CNS; 33.2 µM with NCI-H23 lung; 35.1 µM with HOP-92 NSCLC; 19.6 µM with UACC-62 melanoma. Also, the TGI with KM12 colon amounted to 5.83 µM; in the assay on U251 CNS, 9.79 µM.
Consider `CCOC(=O)C1OC(C2(C)OC3(OC4(C=CC3O)OC(C(C)C(=O)C(C)C(O)C(C)CC(C)c3c(Cl)cc(C)c(O)c3C(=O)O)C(C)CC4C)C(C)C2OC)CC1O` (stereo unspecified), for which the TGI was 20.4 µM in the assay with NCI/ADR-RES ovarian; 1.81 µM with MALME-3M melanoma; 5.77 µM with NCI-H23 lung; 5.77 µM in the assay on HOP-92 NSCLC; 1.25 µM in the assay on UACC-62 melanoma; 3.57 µM with HT29 colon. Also, the TGI in the assay with KM12 colon was determined as 6.41 µM; with NCI-H226 lung, 1.84 µM; with U251 CNS, 4.24 µM.
In the case of `N#CCCN(CCC#N)c1ccc(/C=C2\N=C(c3ccccc3)N(NC(N)=S)C2=O)cc1`, the TGI in the assay with NCI/ADR-RES ovarian, with MALME-3M melanoma, in the assay on SNB-19 CNS, with HOP-92 NSCLC, with UACC-62 melanoma and with HT29 colon was > 100 µM in each case. Further, the TGI with KM12 colon, in the assay on NCI-H226 lung and with U251 CNS was > 100 µM in each case.
As to `Cc1ccc(O)c(-c2cc(-c3cccc(Cl)c3)c(C#N)c(N)n2)c1`, the TGI in the assay with NCI/ADR-RES ovarian was 90.4 µM; with MALME-3M melanoma, 58.1 µM; with NCI-H23 lung, 77.6 µM; in the assay with HOP-92 NSCLC, 48.1 µM; with UACC-62 melanoma, 35.9 µM; in the assay with HT29 colon it was 58.3 µM. Besides, the TGI with KM12 colon came out at 64.2 µM; in the assay on NCI-H226 lung, 55.4 µM; with U251 CNS it was 30 µM.
